inhibition, IC50 and Kd data for 14 compounds are collected here from patent publication US12637425B2, “Compounds and formulations for treating ophthalmic diseases” (Visus Therapeutics, Inc., priority 2020, dated 2026).

For assay [1], the target named is T1, Recombinant cryAB(R120G) protein (Homo sapiens, UniProt P02511, R120G).
T1 sequence (P02511 1-175 R120G): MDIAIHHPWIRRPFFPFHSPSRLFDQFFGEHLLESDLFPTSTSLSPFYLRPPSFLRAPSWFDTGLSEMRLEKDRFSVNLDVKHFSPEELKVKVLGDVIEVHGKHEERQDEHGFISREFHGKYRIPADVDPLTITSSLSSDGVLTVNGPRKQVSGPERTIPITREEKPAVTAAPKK
Description: Kinetic turbidity aggregation assay of recombinant cryAB(R120G). The format is biochemical. The note with it: for inhibition at 25 µM: 25 μM compound, read-out: % Inhibition of Protein Aggregation, 25 μM cmpd; for inhibition at 25 µM / inhibition at 100 µM / inhibition at 400 µM: 15 μM cryAB(R120G), 42° C., absorbance at 550 nm; for inhibition at 100 µM: 100 μM compound, read-out: % Inhibition of Protein Aggregation, 100 μM cmpd; for inhibition at 400 µM: 400 μM compound, read-out: % Inhibition of Protein Aggregation, 400 μM cmpd; for pIC50: inhibition of cryAB(R120G) protein aggregation. A digest of the protocol: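 Recombinant human cryAB R120G at 15 μM final in 50 mM Tris, 100 mM NaCl, 5 mM DTT, 0.01% Triton X-100, 0.05% PEG-8000 with 4% DMSO. Compounds added from 2-fold serial DMSO dilutions, run in quadruplicate; aggregation followed kinetically by turbidity.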

Assay [2] deals with T2, Alpha-Crystallin Domain of alpha B crystallin containing the E117C mutation (Homo sapiens, UniProt P02511, E117C).
T2 construct: the Alpha-Crystallin Domain of alpha B crystallin containing the E117C mutation
T2 sequence (P02511 56-164 E117C limits assumed): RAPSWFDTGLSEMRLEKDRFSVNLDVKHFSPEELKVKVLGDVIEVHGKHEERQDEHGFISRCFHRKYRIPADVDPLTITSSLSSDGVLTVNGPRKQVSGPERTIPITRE
Description: CryAB binding assay (MicroScale Thermophoresis, direct binding). The note with it: 100 nM Cy5-labeled protein, Tris buffer pH 8. How it is done:
Example A-2: CryAB Binding Assay
Affinities were determined by MicroScale Thermophoresis using a direct binding assay. Briefly, the Alpha-Crystallin Domain of alpha B crystallin containing the E117C mutation was alkylated with a Cy5 dye and monitored for binding at 100 nM protein in Tris buffer pH 8, containing 0.1% PEG-8000, 0.05% Tween-20, and 5% DMSO. Binding assays were performed by titrating ligand against a mixture of the dye-labeled protein and monitoring fluorescence changes indicating binding. Based on observed fluorescence measurements for each compound titration a KD was calculated using the Law of Mass Action equation.

In general, inhibition refers to the change of the read-out against control, counted positive when it falls. In general, pIC50 refers to the IC50 on a negative log10 scale, so that one unit is a factor of ten. A word on the pKd: it is the negative decadic logarithm of the Kd, by convention in mol/L. Low readings indicate a large Kd, high ones a small Kd.

SMILES strings stand for the structures. pIC50, pKd: −log10 of the molar value.

For the compound `CN(C)C(CNS(=O)(=O)c1ccc2cc[nH]c2c1)c1cn(C)c2ccccc12` (stereo not shown) [Compound 10, N-(2-(dimethylamino)-2-(1-methyl-1H-indol-3-yl)ethyl)-1H-indole-6-sulfonamide], in assay [1], the inhibition at 25 µM was 69.8%, the inhibition at 100 µM worked out at 98.7%, the inhibition at 400 µM was 99.7% and the negative logarithm of the IC50 (pIC50) was 4.30 to 5.00. The same compound gave a negative-log Kd (pKd) in assay [2] of 4.30 to 5.00.
Consider `Cn1cc([C@@H](CNS(=O)(=O)c2ccc3cc[nH]c3c2)N2CCCC2)c2ccccc21` [Compound 24, (S)-N-(2-(1-methyl-1H-indol-3-yl)-2-(pyrrolidin-1-yl)ethyl)-1H-indole-6-sulfonamide], for which, in assay [1], the inhibition at 25 µM is 99.7%, the inhibition at 100 µM turned out to be 99.9% and the pIC50 is at least 5.00. For the same compound, the negative logarithm of the Kd (pKd) in assay [2] was at least 5.00.
Turning to `Cn1cc([C@H](CNS(=O)(=O)c2ccc3cc[nH]c3c2)N2CCCC2)c2ccccc21` [Compound 25, (R)-N-(2-(1-methyl-1H-indol-3-yl)-2-(pyrrolidin-1-yl)ethyl)-1H-indole-6-sulfonamide], in assay [1], the inhibition at 25 µM is 39%, the inhibition at 100 µM worked out at 97.1%, the inhibition at 400 µM was determined as 97.2% and the pIC50 was 4.30 to 5.00. The same compound showed a pKd in assay [2] of 4.30 to 5.00.
Take `CCn1nc([C@@H](CNS(=O)(=O)c2ccc3cc[nH]c3c2)N2CCCC2)c2ccccc21` [Compound 91, (R)-N-(2-(1-ethyl-1H-indazol-3-yl)-2-(pyrrolidin-1-yl)ethyl)-1H-indole-6-sulfonamide]: in assay [1], the inhibition at 25 µM turned out to be 99%, the inhibition at 100 µM was 99.6% and the negative-log IC50 (pIC50) is at least 5.00. For the same compound, the pKd in assay [2] was at least 5.00.
Take `Cn1cc(C(CN(CC#N)S(=O)(=O)c2ccc3cc[nH]c3c2)N2CCCC2)c2ccccc21` (stereo not shown) [Compound 93, N-(cyanomethyl)-N-(2-(1-methyl-1H-indol-3-yl)-2-(pyrrolidin-1-yl)ethyl)-1H-indole-6-sulfonamide]: in assay [1], the inhibition at 25 µM amounted to 99.7%, the inhibition at 100 µM stood at 94.3% and the negative logarithm of the IC50 (pIC50) was at least 5.00. The same compound gave a pKd in assay [2] of at least 5.00.
As to `CCn1nc([C@H](CNS(=O)(=O)c2ccc3cc[nH]c3c2)N2CCC2)c2ccccc21` [Compound 95, (S)-N-(2-(azetidin-1-yl)-2-(1-ethyl-1H-indazol-3-yl)ethyl)-1H-indole-6-sulfonamide], in assay [1], the inhibition at 25 µM stood at 14% and the inhibition at 100 µM stood at 56.2%.
For `COc1cc2cc[nH]c2cc1S(=O)(=O)NCC(c1cn(C)c2ccccc12)N(C)C` (stereo not shown) [Compound 96, N-(2-(dimethylamino)-2-(1-methyl-1H-indol-3-yl)ethyl)-5-methoxy-1H-indole-6-sulfonamide] the same measures were 60% and 58.8%.
For `COc1ccc2[nH]ccc2c1S(=O)(=O)NCC(c1cn(C)c2ccccc12)N(C)C` (stereo not shown) [Compound 97, N-(2-(dimethylamino)-2-(1-methyl-1H-indol-3-yl)ethyl)-5-methoxy-1H-indole-4-sulfonamide] the same measures were -45% and 58.8%.
In the same order, the values of `Cn1nc([C@@H](CNS(=O)(=O)c2ccc3cc[nH]c3c2)N2CCC2)c2ccccc21` [Compound 98, (R)-N-(2-(azetidin-1-yl)-2-(1-methyl-1H-indazol-3-yl)ethyl)-1H-indole-6-sulfonamide] are 92.9% and 99.1%.
On to `Cn1nc([C@H](CNS(=O)(=O)c2ccc3cc[nH]c3c2)N2CCC2)c2ccccc21` [Compound 99, (S)-N-(2-(azetidin-1-yl)-2-(1-methyl-1H-indazol-3-yl)ethyl)-1H-indole-6-sulfonamide], for which, in assay [1], the inhibition at 25 µM is -56% and the inhibition at 100 µM came to 21.3%.
For `Cc1ccc2c(C(CNS(=O)(=O)c3ccc4cc[nH]c4c3)N(C)C)cn(C)c2c1` (stereo not shown) [Compound 100, N-(2-(1,6-dimethyl-1H-indol-3-yl)-2-(dimethylamino)ethyl)-1H-indole-6-sulfonamide] the same measures were 61.7% and 99.9%.
For `Cn1cc([C@@H](CNS(=O)(=O)c2ccc3cc[nH]c3c2)N2CCC2)c2ccccc21` [Compound 101, (S)-N-(2-(azetidin-1-yl)-2-(1-methyl-1H-indol-3-yl)ethyl)-1H-indole-6-sulfonamide] the same measures were 63% and 97.6%.
In the same order, the values of `Cn1cc([C@H](CNS(=O)(=O)c2ccc3cc[nH]c3c2)N2CCC2)c2ccccc21` [Compound 102, (R)-N-(2-(azetidin-1-yl)-2-(1-methyl-1H-indol-3-yl)ethyl)-1H-indole-6-sulfonamide] are 94% and 94.3%.
Turning to `CC1CN(C(CNS(=O)(=O)c2ccc3cc[nH]c3c2)c2cn(C)c3ccccc23)C1` (stereo not shown) [Compound 103, N-(2-(1-methyl-1H-indol-3-yl)-2-(3-methylazetidin-1-yl)ethyl)-1H-indole-6-sulfonamide], in assay [1], the inhibition at 25 µM turned out to be 59% and the inhibition at 100 µM was found to be 99.7%.
